The nature of one test: Competitive inhibition of Hepatitis C virus NS3 helicase using nucleic acid as substrate. On the set-up: species or system Hepacivirus hominis.
The compound `CCOc1ccc2c(NNC(=O)c3cnccn3)c3c(nc2c1)CCCC3` showed a Ki of 0.02 µM.

The nature of another test: Competitive inhibition of Hepatitis C virus NS3 helicase. On the set-up: species or system Hepacivirus hominis.
`CCOc1ccc2c(NNS(=O)(=O)c3ccccn3)c3c(nc2c1)CCCC3` returned a Ki of 0.1 µM.

On to `CCOc1ccc2c(NNC(=O)c3cnccn3)cc(C)nc2c1`, for which the affinity corresponds to a Ki of 0.75 µM.

In turn, `CCOc1ccc2c(NNC(=O)c3ccccc3)cc(C)nc2c1` showed a Ki of 125 µM.

As for `CCOc1ccc2c(NNC(=O)c3ccco3)cc(C)nc2c1`, the Ki is over 300 µM.

Regarding `CCOc1ccc2c(NNC(=O)[C@@H]3CSCN3)cc(C)nc2c1`, the Ki is over 300 µM.

With `CCOc1ccc2c(NNC(=O)c3cc4ccccc4cn3)cc(C)nc2c1`, the affinity corresponds to a Ki of 250 µM.

Compound `CCOc1ccc2c(NNS(=O)(=O)c3ccccc3)cc(C)nc2c1` had a Ki of 5 µM.

Take `CCOc1ccc2c(NNS(=O)(=O)c3ccc(C)cc3)cc(C)nc2c1`: the affinity, expressed as Ki, was 75 µM.

The compound `CCOc1ccc2c(NNS(=O)(=O)c3ccccn3)cc(C)nc2c1` had a Ki of 0.3 µM.

The compound `Cc1cc(NNC(=O)c2cnccn2)c2ccccc2n1` displayed a Ki of over 300 µM.

As for `CCOc1ccc2nc(C)cc(NNC(=O)c3cnccn3)c2c1`, the Ki was over 300 µM.

`CCOc1ccc2c(NNC(=O)c3cnccn3)c3c(nc2c1)CCCC3` displayed a Ki of 0.02 µM.

`O=C(NNc1c2c(nc3ccccc13)CCCC2)c1cnccn1` registered an inhibition constant Ki of over 300 µM.

Consider `CCOc1ccc2c(NNS(=O)(=O)c3ccccc3)c3c(nc2c1)CCCC3`, for which the affinity, expressed as Ki, was 0.16 µM.

The Ki is the equilibrium dissociation constant of an inhibitor or competing ligand from its target. A low value points to tighter binding.

These data come from ChEMBL document CHEMBL1770144, “Discovery of potent nucleotide-mimicking competitive inhibitors of hepatitis C virus NS3 helicase” (Bioorg Med Chem Lett, 2011).
